Source: patent US20090326072A1, “USE OF 2-(2-NITRO-4-TRIFLUOROMETHYLBENZOYL)-l,3- CYCLOHEXANEDIONE IN THE TREATMENT OF PARKINSON'S DISEASE” (priority 2005, published 2009)
Entries after “also recorded” stand apart in the source; their conditions may differ. Like-named read-outs stand apart in the source and are kept apart here.

Tests used:
[1] = system: AMPT rat model of Parkinson's disease; assay: AMPT rat model of Parkinson's disease (catalepsy descent latency and centre rearing counts); assay type: in vivo; conditions: for Mean Catalepsy Descent Latency (s) / Mean Centre Rearing Counts: 8 h post AMPT; for reversal of AMPT induced deficits in mean centre rearing counts (in words) / reversal of AMPT induced catalepsy (in words): single oral dose 10 mg/kg, -16 or -1 hours
Method: AMPT is a competitive inhibitor of tyrosine hydroxylase. Rats dosed with >150 mg/kg AMPT develop parkinsonian-like behavior and locomotor deficits (e.g. catalepsy and reduced rearing activity) within hours owing to the depletion of striatal dopamine concentration as a consequence of the reduced flux through the dopamine synthetic pathway. […] Indian J. Exp. Biol. 41, 1264-1268).
The effect was compared with appropriate vehicle control groups (oral vehicle was 1% carboxymethylcellulose; CMC) and a group that received a 150 mg/kg i.p. dose of L-dopa.
Eight hours after AMPT (or vehicle) administration rats were assessed for catalepsy and centre rearing activity. During the catalepsy test, the front paws of the rat were placed over a horizontal bar suspended 9 cm off the floor. The time taken for the rat to get off the bar (descent latency) was measured with a maximum time of 3 minutes being allowed. Centre rearing counts were determined over a 1 hour monitoring period using an automated activity monitoring system (AM1053). This system used an array of infrared beams to determine the activity and mobility of each animal. Each cage had 48 infrared beams, 24 on each of two levels arranged in an 8×16, 1″ (25.4 mm) pitch grid. The lower grid measured horizontal x, y movement, whilst the upper grid measured rearing movement. The activity detector operated by counting the number of times the beams changed from unbroken to broken and then incrementing the relevant counters.
These groups were compared to a positive control group (6) dosed with 225 mg/kg AMPT i.p.+150 mg/kg L-dopa i.p. 6.5 hour post AMPT dose. L-dopa was administered with a peripheral dopa decarboxylase inhibitor (benserazide), at 100 mg/kg i.p.
In a second and third series of experiments, the efficacy of eight other HPPD inhibitor test compounds were assessed in the AMPT rat model of Parkinson's disease (Tables 1.5 & 1.6). Male Sprague-Dawley rats (300-350 g) were administered a single i.p. dose of 225 mg/kg AMPT and a single oral dose of 10 mg/kg of the HPPD inhibitor test compound was administered either 1 or 16 hours prior to (−16 or −1 hours) AMPT administration. Behavioral assessment (catalepsy and centre rearing counts) was conducted 8 hours post AMPT administration. The effect was compared with a vehicle control group and a group receiving AMPT alone.

[2] = target: T1, 4-hydroxyphenyl pyruvate dioxygenase (HPPD) (Rattus norvegicus, UniProt P32755); assay: Determination of 4-hydroxyphenyl pyruvate dioxygenase (HPPD) enzyme activity in vitro (rate of oxygen consumption, rat liver cytosol); assay type: biochemical; conditions: for inhibition at 0.1 µM: read-out: % Inhibition at 100 nM
T1 construct: rat liver cytosol (2.7 mg of protein/ml incubate); from tissue; host or cells: rat liver (cytosol, 110,000 g supernatant)
Method: The principle of the assay is that 4-hydroxyphenyl pyruvate dioxygenase (HPPD), an enzyme that participates in the catabolism of tyrosine, catalyses the oxidative decarboxylation and rearrangement of 4-hydroxyphenylpyruvate (HPPA) to homogentisate, with the incorporation of both atoms of molecular oxygen into the product.
Rat liver was homogenised in buffer of the following composition; 0.25 M Sucrose, 5.4 mM EDTA, 20 mM Tris base, pH 7.4, (25% homogenate) using 6 passes of a Potter type homogeniser. The homogenate was then centrifuged at 1,800 g for 10 minutes at 4° C., the pellet was discarded and the supernatant centrifuged at 17,000 g for a further 15 minutes at 4° C. The pellet was then discarded and the supernatant centrifuged at 110,000 g for 80 minutes at 4° C. The supernatant containing the HPPD enzyme from this 110,000 g spin was collected and stored frozen at −70° C. and used in the assays of the test compounds (see below).
Prior to the start of the enzymatic reaction by the addition of HPPA substrate, the enzyme and test compound (inhibitor) were incubated together for 3 minutes.
In cases where the effects of several concentrations of an inhibitor were investigated, an IC50 value (the half-maximal inhibitory concentration of test compound) was determined by plotting the data using a non-linear regression curve-fitting program using a GraphPad Prism™ software package.
Data are expressed as mean values from two experiments except where indicated. Where appropriate the values are expressed as the mean±standard deviation.

plasma tyrosine = assay: Plasma tyrosine concentration kinetic profile in the rat following a single oral dose; assay type: in vivo; conditions: for Plasma Tyrosine Concentration: single oral dose 10 mg/kg; for Plasma tyrosine: single oral dose 2.0 mg/kg
Method: The plasma tyrosine concentration kinetic profile in the rat was determined for each of the HPPD inhibitor test compounds by administering a single oral dose to 10-12 week old male Sprague Dawley rats. Compounds 3.20, 3.13 and 3.26 were dosed at 2 mg/kg in 1% carboxymethylcellulose (1% CMC) vehicle, whilst compounds 3.22, 3.12, 3.15, 3.18, 3.23, 3.21, 3.11, 3.01, 3.24 and 3.25 were administered at 10 mg/kg in 1% CMC.
Blood samples to determine plasma tyrosine concentration were obtained at frequent intervals during the first 24 hours post-dose, and at 48 hours post-dose. These samples were either compared with blood samples obtained from control rats which only received an equivalent volume of the vehicle, 1% CMC, or by comparison with control samples obtained from the rats 1 hour prior to dosing with test the compound. Prior to the analysis of the samples for plasma tyrosine concentration, the blood samples were centrifuged at 1800 g for 10 minutes at 4° C. The plasma was collected and then filtered through a centrifugal micro partition device at 1500 g for 30 minutes at 4° C. The filtered plasma was then divided into two aliquots and stored frozen at −70° C. for subsequent gradient reverse phase high performance liquid chromatographic (HPLC) analysis of plasma tyrosine. Aliquots of plasma were analysed by HPLC using a 250×4.6 mm Hichrom S5ODS2 column at 30° C., eluted with a mobile phase of water/acetonitrile/trifluoroacetic acid (950:50:2 v/v/v) at a flow rate of 1 ml/min. Detection was by a diode array detector at 274 nm. Appropriate tyrosine standards were run alongside the samples for calibration purposes.
The plasma tyrosine concentration kinetic profile for the test compounds 3.20, 3.13 and 3.26 are shown at the time points 1, 2, 4, 6, 12, 24 and 48 hours post-dose in Table 1.1. The data shown are the mean±standard deviation (n=4), except for the 6 hour time point where the data were obtained from n=3 rats for the control and 3.26 groups.
The plasma tyrosine concentration kinetic profile for the test compounds 3.22, 3.12, 3.15, 3.18, 3.23, 3.21, 3.11, 3.01, 3.24 and 3.25 are shown at the time points −1 hour (pre-dose control), 1, 3, 6, 12, 24 and 48 hours post-dose, in Tables 1.2 and 1.3. The data shown are the mean±standard deviation (n=3), except for the −1 hour time point with compound 3.23, where n=2 (Table 1.2), and for the 3 and 6 hour time points with compound 3.21, where n=2 (Table 1.3).

[3] = Table 1.6: 225 mg/kg AMPT i.p. + 10 mg/kg oral at -16 hours
[4] = 100 nM test compound, rat liver cytosol, 3 min pre-incubation
[5] = Table 1.6: 225 mg/kg AMPT i.p. + 10 mg/kg oral at -1 hour
[6] = Table 1.5: 225 mg/kg AMPT i.p. + 10 mg/kg oral at -16 hours

T1 sequence (P32755 whole entry): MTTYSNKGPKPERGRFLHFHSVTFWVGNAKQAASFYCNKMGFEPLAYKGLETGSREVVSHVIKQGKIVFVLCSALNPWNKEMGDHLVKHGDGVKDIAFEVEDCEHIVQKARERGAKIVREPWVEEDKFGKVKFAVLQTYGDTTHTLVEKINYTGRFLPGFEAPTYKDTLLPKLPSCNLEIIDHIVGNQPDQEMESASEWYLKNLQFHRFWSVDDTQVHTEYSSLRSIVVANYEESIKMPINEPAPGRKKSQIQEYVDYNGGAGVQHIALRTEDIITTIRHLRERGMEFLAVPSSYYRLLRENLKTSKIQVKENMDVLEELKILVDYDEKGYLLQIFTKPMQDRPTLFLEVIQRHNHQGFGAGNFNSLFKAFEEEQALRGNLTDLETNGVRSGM

## CCn1ncc(C(=O)c2ccc(S(C)(=O)=O)c(OCCOC)c2Cl)c1O [Compound 3.12]
[1]; [3]
  Mean Catalepsy Descent Latency (s): 16 ± 4.2^+++ s
  Mean Centre Rearing Counts: 211 ± 65 counts
[1]
  reversal of AMPT induced deficits in mean centre rearing counts (in words): either partially or completely reversing
[1]; 10 mg/kg
  reversal of AMPT induced catalepsy (in words): substantially reversed; also recorded: effective in reversing
[2]; [4]
  inhibition at 0.1 µM: 40%
Plasma tyrosine; 1 hour post-dose
  Plasma Tyrosine Concentration: 168 ± 20.1 nmol/mL
Plasma tyrosine; 3 hours post-dose
  Plasma Tyrosine Concentration: 289 ± 35.6 nmol/mL
Plasma tyrosine; 6 hours post-dose
  Plasma Tyrosine Concentration: 451 ± 72.7 nmol/mL
Plasma tyrosine; 12 hours post-dose
  Plasma Tyrosine Concentration: 969 ± 65.2 nmol/mL
Plasma tyrosine; 24 hours post-dose
  Plasma Tyrosine Concentration: 1543 ± 91.1 nmol/mL
Plasma tyrosine; 48 hours post-dose
  Plasma Tyrosine Concentration: 114 ± 8.0 nmol/mL

## CS(=O)(=O)c1cc(C(F)(F)F)ccc1C(=O)C(C#N)C(=O)C1CC1 (stereo not shown) [Compound 3.15]
[1]; [5]
  Mean Catalepsy Descent Latency (s): 23 ± 8.0^+++ s
  Mean Centre Rearing Counts: 199 ± 54 counts
[1]
  reversal of AMPT induced deficits in mean centre rearing counts (in words): either partially or completely reversing
[1]; 10 mg/kg
  reversal of AMPT induced catalepsy (in words): substantially reversed; also recorded: effective in reversing
[2]; [4]
  inhibition at 0.1 µM: 37%
Plasma tyrosine; 1 hour post-dose
  Plasma Tyrosine Concentration: 177 ± 21.7 nmol/mL
Plasma tyrosine; 3 hours post-dose
  Plasma Tyrosine Concentration: 299 ± 18.8 nmol/mL
Plasma tyrosine; 6 hours post-dose
  Plasma Tyrosine Concentration: 458 ± 29.4 nmol/mL
Plasma tyrosine; 12 hours post-dose
  Plasma Tyrosine Concentration: 671 ± 119.7 nmol/mL
Plasma tyrosine; 24 hours post-dose
  Plasma Tyrosine Concentration: 228 ± 76.6 nmol/mL
Plasma tyrosine; 48 hours post-dose
  Plasma Tyrosine Concentration: 117 ± 11.3 nmol/mL

## CS(=O)(=O)c1ccc(C(=O)C2C(=O)CCCC2=O)c(Cl)c1COCC(F)(F)F [Compound 3.18]
[1]; [6]
  Mean Centre Rearing Counts: 359 ± 116^+ counts
[1]; 10 mg/kg
  reversal of AMPT induced catalepsy (in words): substantially reversed; also recorded: effective in reversing
  reversal of AMPT induced deficits in mean centre rearing counts (in words): reached statistical significance; also recorded: either partially or completely reversing
[2]
  inhibition at 0.1 µM: 31%
Plasma tyrosine; 1 hour post-dose
  Plasma Tyrosine Concentration: 177 ± 3.5 nmol/mL
Plasma tyrosine; 3 hours post-dose
  Plasma Tyrosine Concentration: 303 ± 3.9 nmol/mL
Plasma tyrosine; 6 hours post-dose
  Plasma Tyrosine Concentration: 504 ± 29.4 nmol/mL
Plasma tyrosine; 12 hours post-dose
  Plasma Tyrosine Concentration: 1027 ± 62.7 nmol/mL
Plasma tyrosine; 24 hours post-dose
  Plasma Tyrosine Concentration: 1987 ± 133.0 nmol/mL
Plasma tyrosine; 48 hours post-dose
  Plasma Tyrosine Concentration: 313 ± 216.6 nmol/mL

## Cc1c(C(=O)C2C=NN(C)C2=O)ccc(S(C)(=O)=O)c1C1=NOCC1 (stereo not shown) [Compound 3.20]
[1]; [3]
  Mean Catalepsy Descent Latency (s): 8 ± 1.8^+++ s
  Mean Centre Rearing Counts: 409 ± 50^+++ counts
[1]; 10 mg/kg
  reversal of AMPT induced catalepsy (in words): substantially reversed; also recorded: effective in reversing
  reversal of AMPT induced deficits in mean centre rearing counts (in words): reached statistical significance; also recorded: either partially or completely reversing
[2]
  inhibition at 0.1 µM: 57%
Plasma tyrosine; 1 hour post-dose
  Plasma tyrosine: 169 ± 13.6 nmol/mL
Plasma tyrosine; 2 hours post-dose
  Plasma tyrosine: 231 ± 30.2 nmol/mL
Plasma tyrosine; 4 hours post-dose
  Plasma tyrosine: 353 ± 50.9 nmol/mL
Plasma tyrosine; 6 hours post-dose
  Plasma tyrosine: 479 ± 40.0 nmol/mL
Plasma tyrosine; 12 hours post-dose
  Plasma tyrosine: 796 ± 44.3 nmol/mL
Plasma tyrosine; 24 hours post-dose
  Plasma tyrosine: 745 ± 171.8 nmol/mL
Plasma tyrosine; 48 hours post-dose
  Plasma tyrosine: 96 ± 1.7 nmol/mL

## CC1(C)C(=O)C(C(=O)c2ccc(C(F)(F)F)cc2[N+](=O)[O-])C(=O)C(C)(C)C1=O [Compound 3.23]
[1]; [6]
  Mean Catalepsy Descent Latency (s): 10 ± 3.0^+++ s
  Mean Centre Rearing Counts: 273 ± 63 counts
[1]
  reversal of AMPT induced deficits in mean centre rearing counts (in words): either partially or completely reversing
[1]; 10 mg/kg
  reversal of AMPT induced catalepsy (in words): substantially reversed; also recorded: effective in reversing
[2]; [4]
  inhibition at 0.1 µM: 24%
Plasma tyrosine; 1 hour post-dose
  Plasma Tyrosine Concentration: 173 ± 22.0 nmol/mL
Plasma tyrosine; 3 hours post-dose
  Plasma Tyrosine Concentration: 307 ± 28.0 nmol/mL
Plasma tyrosine; 6 hours post-dose
  Plasma Tyrosine Concentration: 502 ± 37.5 nmol/mL
Plasma tyrosine; 12 hours post-dose
  Plasma Tyrosine Concentration: 1041 ± 88.5 nmol/mL
Plasma tyrosine; 24 hours post-dose
  Plasma Tyrosine Concentration: 1835 ± 444.1 nmol/mL
Plasma tyrosine; 48 hours post-dose
  Plasma Tyrosine Concentration: 299 ± 202.8 nmol/mL

## Cc1nc(C(F)(F)F)ccc1C(=O)C1C(=O)C2CCC(C2)C1=O.[K+] (stereo not shown) [Compound 3.24]
[1]; [6]
  Mean Catalepsy Descent Latency (s): 15 ± 8.9^+++ s
  Mean Centre Rearing Counts: 189 ± 36 counts
[1]
  reversal of AMPT induced deficits in mean centre rearing counts (in words): either partially or completely reversing
[1]; 10 mg/kg
  reversal of AMPT induced catalepsy (in words): substantially reversed; also recorded: effective in reversing
[2]
  inhibition at 0.1 µM: 5%
[2]; read-out: % inhibition at 300 nM
  inhibition at 0.3 µM: 34%
Plasma tyrosine; 1 hour post-dose
  Plasma Tyrosine Concentration: 184 ± 27.8 nmol/mL
Plasma tyrosine; 3 hours post-dose
  Plasma Tyrosine Concentration: 313 ± 49.9 nmol/mL
Plasma tyrosine; 6 hours post-dose
  Plasma Tyrosine Concentration: 548 ± 83.9 nmol/mL
Plasma tyrosine; 12 hours post-dose
  Plasma Tyrosine Concentration: 1008 ± 85.2 nmol/mL
Plasma tyrosine; 24 hours post-dose
  Plasma Tyrosine Concentration: 2110 ± 111.1 nmol/mL
Plasma tyrosine; 48 hours post-dose
  Plasma Tyrosine Concentration: 2571 ± 167.7 nmol/mL
